Reference: the NIST ThermoML archive (doi:10.1016/j.jct.2012.02.033)

What was measured:
[1] = 101.33 kPa, Liquid, Vibrating tube method
[2] = xn = mol fraction of the nth substance listed; conditions: 101.3 kPa, Liquid, Vibrating tube method

CCNC=O [N-ethylformamide]
[1]
Conditions | mass density [kg/m3]
293.15 K | 951.59
298.15 K | 947.48
303.15 K | 943.29
308.15 K | 939.04
313.15 K | 934.78

CCNC=O [N-ethylformamide] + C1CCOC1
mass density [kg/m3], [2]
Conditions | x1 = 0.1142 | x1 = 0.2142 | x1 = 0.3179 | x1 = 0.4258 | x1 = 0.5219 | x1 = 0.6177 | x1 = 0.7146 | x1 = 0.8111 | x1 = 0.9121
293.15 K | 896.3 | 903.1 | 910.05 | 917.17 | 923.35 | 929.34 | 935.26 | 940.88 | 946.8
298.15 K | 890.99 | 897.92 | 905.07 | 912.38 | 918.66 | 924.77 | 930.78 | 936.53 | 942.58
303.15 K | 885.68 | 892.77 | 900.1 | 907.54 | 913.98 | 920.19 | 926.31 | 932.18 | 938.31
308.15 K | 880.28 | 887.57 | 895.02 | 902.62 | 909.25 | 915.53 | 921.81 | 927.84 | 934.01
313.15 K | 874.84 | 882.2 | 889.89 | 897.66 | 904.45 | 910.99 | 917.2 | 923.35 | 929.64

CCNC=O [N-ethylformamide] + CCC(C)=O
mass density [kg/m3], [2]
Conditions | x1 = 0.1242 | x1 = 0.2302 | x1 = 0.3384 | x1 = 0.4407 | x1 = 0.5398 | x1 = 0.6369 | x1 = 0.7317 | x1 = 0.8186 | x1 = 0.91
293.15 K | 826.16 | 840.95 | 856.12 | 870.55 | 884.78 | 898.71 | 912.21 | 925 | 938.61
298.15 K | 820.91 | 836.01 | 851.11 | 865.71 | 880.07 | 894.02 | 907.71 | 920.61 | 934.41
303.15 K | 815.8 | 830.97 | 846.25 | 860.93 | 875.4 | 889.48 | 903.31 | 916.28 | 930.12
308.15 K | 810.54 | 825.9 | 841.32 | 856.14 | 870.71 | 884.87 | 898.84 | 911.88 | 925.83
313.15 K | 805.22 | 820.74 | 836.31 | 851.26 | 865.95 | 880.2 | 894.3 | 907.42 | 921.48

CCNC=O [N-ethylformamide] + CCOC(C)=O
mass density [kg/m3], [2]
Conditions | x1 = 0.1322 | x1 = 0.2514 | x1 = 0.3559 | x1 = 0.4653 | x1 = 0.564 | x1 = 0.671 | x1 = 0.7544 | x1 = 0.8376 | x1 = 0.9223
293.15 K | 907.89 | 914.13 | 919.39 | 924.91 | 929.7 | 935.01 | 939.27 | 943.3 | 947.63
298.15 K | 901.99 | 908.51 | 914.06 | 919.68 | 924.66 | 930.12 | 934.56 | 938.85 | 943.28
303.15 K | 896.06 | 902.84 | 908.62 | 914.51 | 919.65 | 925.33 | 929.93 | 934.35 | 938.94
308.15 K | 890.09 | 897.16 | 903.23 | 909.29 | 914.62 | 920.5 | 925.29 | 929.86 | 934.56
313.15 K | 884.03 | 891.14 | 897.65 | 903.98 | 909.53 | 915.67 | 920.55 | 925.31 | 930.15

CCC(C)=O [butanone]
[1]
Conditions | mass density [kg/m3]
293.15 K | 808.64
298.15 K | 803.24
303.15 K | 797.88
308.15 K | 792.45
313.15 K | 786.94

CCOC(C)=O [ethyl acetate]
[1]
Conditions | mass density [kg/m3]
293.15 K | 900.26
298.15 K | 894.14
303.15 K | 887.85
308.15 K | 881.52
313.15 K | 875.14

C1CCOC1 [tetrahydrofuran]
[1]
Conditions | mass density [kg/m3]
293.15 K | 888.73
298.15 K | 883.24
303.15 K | 877.6
308.15 K | 872.02
313.15 K | 866.23
